Measured values taken from patent publication US8163793B2, “Proline derivatives” (Hoffman-La Roche Inc., priority 2009, dated 2012).

How the values were obtained:
Cathepsin S = Cathepsin S (UniProt P25774); assay: Cathepsin enzyme inhibition assay (fluorogenic peptide substrate Z-Val-Val-Arg-AMC), Cathepsin S; assay type: biochemical, human and mouse; settings: enzyme 1 nM, substrate 20 μM, pH 6.5; read-out: CatS IC50
Summary of the method: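 Compounds were combined with 1 nM human or mouse enzyme, and substrate then started the reaction. The buffer was potassium phosphate (100 mM, pH 6.5) containing EDTA-Na 5 mM, Triton X-100 0.001% and […] 5 mM.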

Cat L = Cat L (UniProt P07711); assay: Cathepsin enzyme inhibition assay (fluorogenic peptide substrate Z-Val-Val-Arg-AMC), Cathepsin L; assay type: biochemical, human and mouse; settings: enzyme 1 nM, substrate 20 μM, pH 6.5; read-out: CatL IC50
Summary of the method: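 Fluorogenic cleavage of Z-Val-Val-Arg-AMC (20 μM) by 1 nM Cat L was monitored at ex 360/em 465 nm for 20 min, the linear phase. The buffer was 100 mM potassium phosphate pH 6.5 with 5 mM EDTA and DTT. IC50 values were derived by standard methods, in μM.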

| IC50 (Cathepsin S) | IC50 (Cat L) | SMILES |
| --- | --- | --- |
| 0.3 nM | ≥ 25 µM | CC(C)(C)C(=O)N1C[C@H](S(=O)(=O)c2ccc(OCC(F)(F)F)cc2C(F)(F)F)C[C@H]1C(=O)NC1(C#N)CC1 [Example 212, (2S,4R)-1-(2,2-Dimethyl-propionyl)-4-[4-(2,2,2-trifluoro-ethoxy)-2-trifluoromethyl-benzenesulfonyl]-pyrrolidine-2-carboxylic acid (1-cyano-cyclopropyl)-amide] |
| 0.4 nM | 7.97 µM | N#CC1(NC(=O)[C@@H]2C[C@@H](S(=O)(=O)c3ccccc3Cl)CN2C(=O)C2(C(F)(F)F)CC2)CC1 [Example 213, (2S,4R)-4-(2-Chloro-benzenesulfonyl)-1-(1-trifluoromethyl-cyclopropanecarbonyl)-pyrrolidine-2-carboxylic acid (1-cyano-cyclopropyl)-amide] |
| 0.5 nM | 11.3 µM | CC1(C(=O)N2C[C@H](S(=O)(=O)c3ccccc3Cl)C[C@H]2C(=O)NC2(C#N)CC2)CC1 [Example 214, (2S,4R)-4-(2-Chloro-benzenesulfonyl)-1-(1-methyl-cyclopropanecarbonyl)-pyrrolidine-2-carboxylic acid (1-cyano-cyclopropyl)-amide] |
| 0.2 nM | 0.285 µM | N#CC1(NC(=O)[C@@H]2C[C@@H](S(=O)(=O)c3ccccc3Cl)CN2C(=O)C2(c3ccccc3)CC2)CC1 [Example 216, (2S,4R)-4-(2-Chloro-benzenesulfonyl)-1-(1-phenyl-cyclopropanecarbonyl)-pyrrolidine-2-carboxylic acid (1-cyano-cyclopropyl)-amide] |
| 0.7 nM | 14 µM | CC(C)(C)C(=O)N1C[C@H](S(=O)(=O)c2ccccc2Cl)C[C@H]1C(=O)NC1(C#N)CC1 [Example 217, (2S,4R)-4-(2-Chloro-benzenesulfonyl)-1-(2,2-dimethyl-propionyl)-pyrrolidine-2-carboxylic Acid (1-cyano-cyclopropyl)-amide] |
| 0.4 nM | 14.6 µM | CC(C)C(=O)N1C[C@H](S(=O)(=O)c2ccccc2Cl)C[C@H]1C(=O)NC1(C#N)CC1 [Example 218, (2S,4R)-4-(2-Chloro-benzenesulfonyl)-1-isobutyryl-pyrrolidine-2-carboxylic acid (1-cyano-cyclopropyl)-amide] |
| 0.3 nM | 12.6 µM | N#CC1(NC(=O)[C@@H]2C[C@@H](S(=O)(=O)c3ccccc3Cl)CN2C(=O)CC(F)(F)F)CC1 [Example 219, (2S,4R)-4-(2-Chloro-benzenesulfonyl)-1-(3,3,3-trifluoro-propionyl)-pyrrolidine-2-carboxylic Acid (1-cyano-cyclopropyl)-amide] |
| 0.4 nM | 17.8 µM | CC(C)CC(=O)N1C[C@H](S(=O)(=O)c2ccccc2Cl)C[C@H]1C(=O)NC1(C#N)CC1 [Example 220, (2S,4R)-4-(2-Chloro-benzenesulfonyl)-1-(3-methyl-butyryl)-pyrrolidine-2-carboxylic acid (1-cyano-cyclopropyl)-amide] |
| 130 nM | ≥ 25 µM | CC(C)(C)OC(=O)N1C[C@H](S(=O)(=O)c2ccc(Cl)cc2OCC(F)(F)F)C[C@H]1C(=O)NC1(C#N)CC1 [Example 221, (2S,4R)-4-[4-Chloro-2-(2,2,2-trifluoro-ethoxy)-benzenesulfonyl]-2-(1-cyano-cyclopropylcarbamoyl)-pyrrolidine-1-carboxylic acid tert-butyl ester] |
| 1.2 nM | 18.6 µM | CC1(C(=O)N2C[C@H](S(=O)(=O)c3ccc(Cl)cc3Cl)C[C@H]2C(=O)NC2(C#N)CC2)CC1 [Example 222, (2S,4R)-4-(2,4-Dichloro-benzenesulfonyl)-1-(1-methyl-cyclopropanecarbonyl)-pyrrolidine-2-carboxylic acid (1-cyano-cyclopropyl)-amide] |
| 0.1 nM | 0.045 µM | N#CC1(NC(=O)[C@@H]2C[C@@H](S(=O)(=O)c3ccc(Cl)cc3Cl)CN2C(=O)C2(c3ccc(Cl)cc3)CC2)CC1 [Example 223, (2S,4R)-1-[1-(4-Chloro-phenyl)-cyclopropanecarbonyl]-4-(2,4-dichloro-benzenesulfonyl)-pyrrolidine-2-carboxylic acid (1-cyano-cyclopropyl)-amide] |
| 0.2 nM | 1 µM | N#CC1(NC(=O)[C@@H]2C[C@@H](S(=O)(=O)c3ccc(Cl)cc3Cl)CN2C(=O)C2(c3ccccc3)CC2)CC1 [Example 224, (2S,4R)-4-(2,4-Dichloro-benzenesulfonyl)-1-(1-phenyl-cyclopropanecarbonyl)-pyrrolidine-2-carboxylic acid (1-cyano-cyclopropyl)-amide] |
| 1.2 nM | 18.3 µM | CC(C)(C)C(=O)N1C[C@H](S(=O)(=O)c2ccc(Cl)cc2Cl)C[C@H]1C(=O)NC1(C#N)CC1 [Example 225, (2S,4R)-4-(2,4-Dichloro-benzenesulfonyl)-1-(2,2-dimethyl-propionyl)-pyrrolidine-2-carboxylic Acid (1-cyano-cyclopropyl)-amide] |
| 0.6 nM | 13.5 µM | CC(C)C(=O)N1C[C@H](S(=O)(=O)c2ccc(Cl)cc2Cl)C[C@H]1C(=O)NC1(C#N)CC1 [Example 226, (2S,4R)-4-(2,4-Dichloro-benzenesulfonyl)-1-isobutyryl-pyrrolidine-2-carboxylic acid (1-cyano-cyclopropyl)-amide] |
| 0.6 nM | 15.6 µM | N#CC1(NC(=O)[C@@H]2C[C@@H](S(=O)(=O)c3ccc(Cl)cc3Cl)CN2C(=O)CC(F)(F)F)CC1 [Example 227, (2S,4R)-4-(2,4-Dichloro-benzenesulfonyl)-1-(3,3,3-trifluoro-propionyl)-pyrrolidine-2-carboxylic acid (1-cyano-cyclopropyl)-amide] |
| 0.9 nM | 15.4 µM | CC(C)CC(=O)N1C[C@H](S(=O)(=O)c2ccc(Cl)cc2Cl)C[C@H]1C(=O)NC1(C#N)CC1 [Example 228, (2S,4R)-4-(2,4-Dichloro-benzenesulfonyl)-1-(3-methyl-butyryl)-pyrrolidine-2-carboxylic acid (1-cyano-cyclopropyl)-amide] |
| 14.7 nM | 23.9 µM | C[C@H](Oc1ccc(S(=O)(=O)[C@@H]2C[C@@H](C(=O)NC3(C#N)CC3)N(C(=O)OC(C)(C)C)C2)c(Cl)c1)C(F)(F)F [Example 229, (2S,4R)-4-[2-Chloro-4-((S)-2,2,2-trifluoro-1-methyl-ethoxy)-benzenesulfonyl]-2-(1-cyano-cyclopropylcarbamoyl)-pyrrolidine-1-carboxylic acid tert-butyl ester] |
| 15.3 nM | 14.8 µM | C[C@H](Oc1ccc(S(=O)(=O)[C@H]2CN[C@H](C(=O)NC3(C#N)CC3)C2)c(Cl)c1)C(F)(F)F [Example 230, (2S,4R)-4-[2-Chloro-4-((S)-2,2,2-trifluoro-1-methyl-ethoxy)-benzenesulfonyl]-pyrrolidine-2-carboxylic acid (1-cyano-cyclopropyl)-amide] |
| 0.5 nM | > 25 µM | Cc1cc(N2C[C@H](S(=O)(=O)c3ccccc3C(F)(F)F)C[C@H]2C(=O)NC2(C#N)CC2)n(-c2ccn(C(=O)OCC(C)C)c(=O)c2)n1 [Example 231, 4-{5-[(2S,4R)-2-(1-Cyano-cyclopropylcarbamoyl)-4-(2-trifluoromethyl-benzenesulfonyl)-pyrrolidin-1-yl]-3-methyl-pyrazol-1-yl}-2-oxo-2H-pyridine-1-carboxylic acid Isobutyl ester] |
